“Also recorded” adds a separate entry of the source.
Tests used:
[1] = test system: IL-17+ CD4 T-cells in the lamina propria; assay: IL-17+ CD4 T-cells in lamina propria of C. rodentium infected mice (flow cytometry); type: in vivo, C57BL/6J and C3H/HeOuJ mice
Experimental: (§1) The small intestines and colons of C57BL/6J or C3H/HeOuJ mice were harvested at the indicated times. […] To prepare IEL/LPL, small intestines and colons were flushed with HBSS medium without calcium or magnesium (Gibco). Intestines were cut longitudinally and washed twice briefly in HBSS, 2% FBS in 6-well plates and then placed in 15 mL ice-cold HBSS, 2% FBS in 50-mL conical tubes and vortexed at maximum setting for 15-20 seconds. Tissue was removed using long forceps into a new tube with 15 mL ice-cold HBSS, 2% FBS and vortexed again twice, for a total of three washes. The tissues were then placed in 50-mL conical tubes containing 25 mL, HBSS, 5% FBS, and 1 mM DTT (Sigma-Aldrich). Tubes were incubated on a rocker at 37° C. for 20 minutes followed by vortexing extensively at maximum setting. For IEL, fractions were collected after two rounds of 20 minutes in HBSS/FBS/DTT. Tissues were then placed in fresh tubes containing 25 mL of PBS with 1.3 mM EDTA, incubated on a rocker for 60 minutes at 37° C. and vortexed. […]
(§2) WT and mutant C. rodentium were prepared by incubation with shaking at 37° C. for 8 hours in LB broth medium. After 8 hours, the bacterial density was assessed at an optical density of 600 nm and confirmed by plating of serial dilutions. […]

[2] = test system: caspase-9 and caspase-3, caspase-8 and caspase-10, and caspase-12; details: cited from earlier work
[3] = test system: A20 cells; assay: Inhibition of anti-Fas induced apoptosis, Annexin-V/7-AAD flow cytometry; type: cell-based; details: anti-Fas (anti-CD95), four hours, Annexin V/7AAD staining
[4] = test system: intestinal epithelial cells; assay: TUNEL staining of colon sections of C. rodentium infected mice; type: in vivo, C3H/HeOuJ mice; details: 20 mg/kg intraperitoneally on days 0, 1, 2, 3, and 5, colons day 6
Experimental: Colons of C3H/HeOuJ mice were harvested on day 6 and flushed with PBS. Tissues were fresh-frozen in O.C.T. Compound (Sakura Finetek, Zoeterwoude, The Netherlands) and stored at −80° C. Sections of 6 μm were cut and fixed with either 4% paraformaldehyde or ice-cold acetone for 1 h, dried, and stored at −20° C. TUNEL staining was performed using the In Situ Cell Death Detection Kit, TMR Red (Roche) according to manufacturer's instructions. For immunostaining, sections were blocked and incubated with primary antibodies in a humidified atmosphere for 1 hour at room temperature. After washing, conjugated secondary antibodies were added for 35 minutes. The slides were then washed and mounted with Fluoromount-G (Southern Biotech, Birmingham, Ala.). […] Analyses were performed using 10× and 20× dry objectives on a Nikon Eclipse E-600 fluorescence microscope and Adobe® Photoshop® software (Adobe Systems, San Jose, Calif.).
as §2

[5] = test system: infection induced barrier function; details: cited from earlier work
[6] = test system: IL-17+ CD4 T-cells in lamina propria; assay: DSS-induced damage of the intestinal epithelium, IL-17+ CD4 T-cells in lamina propria lymphocytes; type: in vivo, C57BL/6 mice; details: DSS in water for seven days, sacrificed on day 9, small intestines and colons
Experimental: as §1, §2

| Compound | number of IL-17+ CD4 T-cells ([1]; C. rodentium infected C57BL/6J mice) | number of IL-17+ CD4 T-cells ([1]; both strains of C. rodentium infected mice) | prevention of apoptosis by pathway ([2]; caspase-9 and caspase-3, caspase-8 and caspase-10, and caspase-12 pathways) | prevention of apoptosis compared with other caspase inhibitors [2] | toxicity to cells [2] | Fas-induced apoptosis [3] | numbers of TUNEL+ cells [4] | effect on infection induced barrier function [5] | IL-17+ CD4 T-cells [6] |
| --- | --- | --- | --- | --- | --- | --- | --- | --- | --- |
| CC(C)[C@H](NC(=O)c1ccc2ccccc2n1)C(=O)N[C@@H](CC(=O)O)C(=O)COc1c(F)cccc1F [Q-VD-OPH] | levels similar to those found in uninfected mice | profoundly diminished the number of IL-17^+ CD4 T-cells | equally effective in preventing apoptosis mediated by the three major apoptotic pathways | significantly more effective in preventing apoptosis than ZVAD-fmk and Boc-D-fmk | not toxic to cells even at extremely high concentrations | protected from undergoing Fas-induced apoptosis; also recorded: inhibits apoptosis | decreased numbers of TUNEL^+ cells | has no effects on infection induced barrier function |  |
| dextran sulfate sodium [dextran sulfate sodium (DSS)] |  |  |  |  |  |  |  |  | did not increase IL-17^+ CD4 T-cells over uninfected controls |
